Laboratory results published in PMC10678405, “2126. Safety, Tolerability, and Pharmacokinetics (PK) in Healthy Participants Following Single Dose Administration of Zosurabalpin, a Novel Pathogen-Specific Antibiotic for the Treatment of Serious Acinetobacter Infections” (Open Forum Infectious Diseases, 2023).
Like-named read-outs stand apart in the source and are kept apart here.

Columns and labels:
[1] = single IV dose; for dose proportionality of plasma exposures (Cmax and AUCinf): healthy participants
Source text: (§1) Methods The entry-into-human study (BP41732) was a double-blind, placebo-controlled, randomized, single-and multiple ascending dose study in healthy participants. In Part 1 (SAD) of Study BP41732, participants were randomized 3:1 to receive IV zosurabalpin or placebo in sequential single ascending dose cohorts. The mass balance study (BP43532) was a non-randomized, non-controlled, open-label, single IV dose study in healthy male participants. […] Disclosures Andreas Guenther, PhD, F. Hoffmann-La Roche Ltd: Employee Amanda Messer, BPharm, Roche Products Ltd: Employee Mylène Giraudon, PharmD, F. Hoffmann-La Roche Ltd: Employee Katie Patel, MSc, Roche Products Limited: Employer|Roche Products Limited: Stocks/Bonds Erik J. Deurloo, MSc, F. Hoffmann-La Roche Ltd: Salary|F. Hoffmann-La Roche Ltd: Stocks/Bonds Michael Lobritz, MD, PhD, Roche: full time employee|Roche: full time employee

healthy participants = test system: healthy participants
Source text: as §1

[2] = healthy male participants, study BP43532, average
[3] = healthy participants, single IV dose 10 mg to 2000 mg

CN1C(=O)[C@H](CCCCN)NC(=O)[C@H](CCCN)NCc2cccnc2Sc2cccc(-c3ccc(C(=O)O)cc3)c2CNC(=O)[C@@H]1Cc1c[nH]c2ccccc12 [zosurabalpin, Zosurabalpin]
total [14C]-radioactivity recovered in feces, % of the administered dose [1, 2]: 48.0 % of the administered dose
total [14C]-radioactivity recovered in urine, % of the administered dose [1, 2]: 52.6 % of the administered dose
dose proportionality of plasma exposures (Cmax and AUCinf) ([1]; above 1000 mg up to 2000 mg): more than dose-proportionally
dose proportionality of plasma exposures (Cmax and AUCinf) ([1]; up to 1000 mg): increased approximately dose-proportionally
treatment-related infusion-related reactions (IRRs), participants affected / participants dosed (healthy participants; healthy male and female participants, single IV dose 10 mg to 2000 mg, studies BP41732 Part 1 (SAD) and BP43532, preliminary data): 9/64
changes in laboratory values, ECGs or vital signs compared to placebo (healthy participants; [3]): did not show any clinically significant changes
dose dependence of IRR occurrence (healthy participants; [3]): appeared to be dose-dependent
overall safety and tolerability (healthy participants; healthy participants, single IV doses of 10 mg to 2000 mg): safe and overall well tolerated
